Measurements reported in PubChem BioAssay (NCI).
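Exposure lasted 48 hours, with cells grown in 96-well plates and compounds tested at five concentrations. Abbreviation: GI50, concentration required for 50% inhibition of growth. At the TGI there is no net growth.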

How the values were obtained:
Assay in all cases: inhibition of tumour cell growth, NCI panel, 48 h
RXF 393 renal = tested on: RXF 393 renal
HS 578T breast = tested on: HS 578T breast
MDA-MB-435 = tested on: MDA-MB-435
T-47D breast = tested on: T-47D breast
UACC-62 melanoma = tested on: UACC-62 melanoma
M14 melanoma = tested on: M14 melanoma
HCT-116 colon = tested on: HCT-116 colon
BT-549 breast = tested on: BT-549 breast
786-0 renal = tested on: 786-0 renal
HT29 colon = tested on: HT29 colon
K-562 leukemia = tested on: K-562 leukemia
KM12 colon = tested on: KM12 colon
PC-3 prostate = tested on: PC-3 prostate
A498 renal = tested on: A498 renal
MDA-MB-468 breast = tested on: MDA-MB-468 breast
OVCAR-3 ovarian = tested on: OVCAR-3 ovarian
NCI-H460 lung = tested on: NCI-H460 lung
ACHN renal = tested on: ACHN renal
SK-MEL-28 melanoma = tested on: SK-MEL-28 melanoma
MCF7 breast = tested on: MCF7 breast
HOP-62 NSCLC = tested on: HOP-62 NSCLC
IGROV1 ovarian = tested on: IGROV1 ovarian
HCT-15 colon = tested on: HCT-15 colon
NCI-H522 lung = tested on: NCI-H522 lung
NCI-H226 lung = tested on: NCI-H226 lung
COLO 205 colon = tested on: COLO 205 colon
U251 CNS = tested on: U251 CNS
SK-OV-3 ovarian = tested on: SK-OV-3 ovarian
SK-MEL-5 melanoma = tested on: SK-MEL-5 melanoma
HCC-2998 colon = tested on: HCC-2998 colon
LOX IMVI melanoma = tested on: LOX IMVI melanoma
SR leukemia = tested on: SR leukemia
SF-295 CNS = tested on: SF-295 CNS
NCI-H23 lung = tested on: NCI-H23 lung
UACC-257 melanoma = tested on: UACC-257 melanoma
HL-60(TB) leukemia = tested on: HL-60(TB) leukemia
MALME-3M melanoma = tested on: MALME-3M melanoma
SN12C renal = tested on: SN12C renal
RPMI-8226 leukemia = tested on: RPMI-8226 leukemia
CAKI-1 renal = tested on: CAKI-1 renal
OVCAR-8 ovarian = tested on: OVCAR-8 ovarian
HOP-92 NSCLC = tested on: HOP-92 NSCLC
TK-10 renal = tested on: TK-10 renal
SNB-19 CNS = tested on: SNB-19 CNS
OVCAR-4 ovarian = tested on: OVCAR-4 ovarian
DU-145 prostate = tested on: DU-145 prostate
SF-539 CNS = tested on: SF-539 CNS
NCI/ADR-RES ovarian = tested on: NCI/ADR-RES ovarian
OVCAR-5 ovarian = tested on: OVCAR-5 ovarian
EKVX NSCLC = tested on: EKVX NSCLC
CCRF-CEM leukemia = tested on: CCRF-CEM leukemia
A549 NSCLC = tested on: A549 NSCLC
SF-268 CNS = tested on: SF-268 CNS
MOLT-4 leukemia = tested on: MOLT-4 leukemia
SW-620 colon = tested on: SW-620 colon

Q: What does the source list for Cc1ccc([N+](=O)[O-])c(C(=O)Nc2ccc(-c3ccc4c(c3)NC(=O)/C4=C\c3ccc[nH]3)cc2)c1?
A: GI50 (RXF 393 renal): 14.6 µM; TGI (RXF 393 renal): 30.6 µM; GI50 (HS 578T breast): 26.3 µM; TGI (HS 578T breast): > 100 µM; GI50 (MDA-MB-435): > 100 µM; TGI (MDA-MB-435): > 100 µM; GI50 (T-47D breast): 0.515 µM; TGI (T-47D breast): 20.9 µM; GI50 (UACC-62 melanoma): 90.4 µM; TGI (UACC-62 melanoma): > 100 µM; GI50 (M14 melanoma): > 100 µM; TGI (M14 melanoma): > 100 µM; GI50 (HCT-116 colon): 23.2 µM; TGI (HCT-116 colon): > 100 µM; GI50 (BT-549 breast): 9.01 µM; TGI (BT-549 breast): 61 µM; GI50 (786-0 renal): 24.4 µM; TGI (786-0 renal): 68.8 µM; GI50 (HT29 colon): > 100 µM; TGI (HT29 colon): > 100 µM; GI50 (K-562 leukemia): > 100 µM; TGI (K-562 leukemia): > 100 µM; GI50 (KM12 colon): > 100 µM; TGI (KM12 colon): > 100 µM; GI50 (PC-3 prostate): > 100 µM; TGI (PC-3 prostate): > 100 µM; GI50 (A498 renal): 23 µM; TGI (A498 renal): 49.8 µM; GI50 (MDA-MB-468 breast): 0.267 µM; TGI (MDA-MB-468 breast): 0.943 µM; GI50 (OVCAR-3 ovarian): 27.6 µM; TGI (OVCAR-3 ovarian): 98.8 µM; GI50 (NCI-H460 lung): 3.48 µM; TGI (NCI-H460 lung): > 100 µM; GI50 (ACHN renal): 43.6 µM; TGI (ACHN renal): > 100 µM; GI50 (SK-MEL-28 melanoma): > 100 µM; TGI (SK-MEL-28 melanoma): > 100 µM; GI50 (MCF7 breast): 0.237 µM; TGI (MCF7 breast): 17.1 µM; GI50 (HOP-62 NSCLC): 22.2 µM; TGI (HOP-62 NSCLC): 54 µM; GI50 (IGROV1 ovarian): 17.8 µM; TGI (IGROV1 ovarian): 55 µM; GI50 (HCT-15 colon): > 100 µM; TGI (HCT-15 colon): > 100 µM; GI50 (NCI-H522 lung): 17 µM; TGI (NCI-H522 lung): 45.6 µM; GI50 (NCI-H226 lung): 23.4 µM; TGI (NCI-H226 lung): > 100 µM; GI50 (COLO 205 colon): 53.1 µM; TGI (COLO 205 colon): > 100 µM; GI50 (U251 CNS): 16.4 µM; TGI (U251 CNS): 35.5 µM; GI50 (SK-OV-3 ovarian): 23.6 µM; TGI (SK-OV-3 ovarian): 63.2 µM; GI50 (SK-MEL-5 melanoma): > 100 µM; TGI (SK-MEL-5 melanoma): > 100 µM; GI50 (HCC-2998 colon): 60 µM; TGI (HCC-2998 colon): > 100 µM; GI50 (LOX IMVI melanoma): 45.9 µM; TGI (LOX IMVI melanoma): > 100 µM; GI50 (SR leukemia): 10.4 µM; TGI (SR leukemia): > 100 µM; GI50 (SF-295 CNS): 29.2 µM; TGI (SF-295 CNS): > 100 µM; GI50 (NCI-H23 lung): 1.78 µM; TGI (NCI-H23 lung): 19.2 µM; GI50 (UACC-257 melanoma): > 100 µM; TGI (UACC-257 melanoma): > 100 µM; GI50 (HL-60(TB) leukemia): > 100 µM; TGI (HL-60(TB) leukemia): > 100 µM; GI50 (MALME-3M melanoma): 36.7 µM; TGI (MALME-3M melanoma): > 100 µM; GI50 (SN12C renal): 55.2 µM; TGI (SN12C renal): > 100 µM; GI50 (RPMI-8226 leukemia): > 100 µM; TGI (RPMI-8226 leukemia): > 100 µM; GI50 (CAKI-1 renal): > 100 µM; TGI (CAKI-1 renal): > 100 µM; GI50 (OVCAR-8 ovarian): 18.7 µM; TGI (OVCAR-8 ovarian): 39.7 µM; GI50 (HOP-92 NSCLC): 21.3 µM; TGI (HOP-92 NSCLC): 57.1 µM; GI50 (TK-10 renal): 22.7 µM; TGI (TK-10 renal): 62 µM; GI50 (SNB-19 CNS): 19.9 µM; TGI (SNB-19 CNS): 50.3 µM; GI50 (OVCAR-4 ovarian): 24.4 µM; TGI (OVCAR-4 ovarian): > 100 µM; GI50 (DU-145 prostate): 43.8 µM; TGI (DU-145 prostate): > 100 µM; GI50 (SF-539 CNS): 25.4 µM; TGI (SF-539 CNS): > 100 µM; GI50 (NCI/ADR-RES ovarian): 17 µM; TGI (NCI/ADR-RES ovarian): 38.1 µM; GI50 (OVCAR-5 ovarian): 23.9 µM; TGI (OVCAR-5 ovarian): > 100 µM; GI50 (EKVX NSCLC): 0.211 µM; TGI (EKVX NSCLC): > 100 µM; GI50 (CCRF-CEM leukemia): > 100 µM; TGI (CCRF-CEM leukemia): > 100 µM; GI50 (A549 NSCLC): > 100 µM; TGI (A549 NSCLC): > 100 µM; GI50 (SF-268 CNS): 31.1 µM; TGI (SF-268 CNS): > 100 µM; GI50 (MOLT-4 leukemia): 11.2 µM; TGI (MOLT-4 leukemia): > 100 µM; GI50 (SW-620 colon): > 100 µM; TGI (SW-620 colon): > 100 µM
